Laboratory results as given in US9266879B2, “Naphthridine derivatives as PI3K inhibitors for the treatment of cancer and immune-inflammatory disease” (Karus Therapeutic Limited, priority 2010, dated 2016).
Like-named read-outs stand apart in the source and are kept apart here.

Legend:
PI3K-p110γ = PI3K-p110γ (Homo sapiens, UniProt P48736); assay: PI3K-p110γ inhibition; assay type: biochemical
PI3K-p110δ = PI3K-p110δ (Homo sapiens, UniProt O00329); assay: PI3K-p110δ inhibition; assay type: biochemical
PI3K-p110β = PI3K-p110β (Homo sapiens, UniProt P42338); assay: Biochemical PI3K-p110β inhibition
PI3K-p110α = PI3K-p110α (Homo sapiens, UniProt P42336); assay: PI3K-p110α inhibition; assay type: biochemical
MCF7 Breast Tumour Cell = assay: MCF7 breast tumour cell growth inhibition; assay type: cell-based; details: Homo sapiens
[1] = read-out: Biochemical IC50, PI3K-p110β

Sequence of PI3K-p110β (P42338 whole entry): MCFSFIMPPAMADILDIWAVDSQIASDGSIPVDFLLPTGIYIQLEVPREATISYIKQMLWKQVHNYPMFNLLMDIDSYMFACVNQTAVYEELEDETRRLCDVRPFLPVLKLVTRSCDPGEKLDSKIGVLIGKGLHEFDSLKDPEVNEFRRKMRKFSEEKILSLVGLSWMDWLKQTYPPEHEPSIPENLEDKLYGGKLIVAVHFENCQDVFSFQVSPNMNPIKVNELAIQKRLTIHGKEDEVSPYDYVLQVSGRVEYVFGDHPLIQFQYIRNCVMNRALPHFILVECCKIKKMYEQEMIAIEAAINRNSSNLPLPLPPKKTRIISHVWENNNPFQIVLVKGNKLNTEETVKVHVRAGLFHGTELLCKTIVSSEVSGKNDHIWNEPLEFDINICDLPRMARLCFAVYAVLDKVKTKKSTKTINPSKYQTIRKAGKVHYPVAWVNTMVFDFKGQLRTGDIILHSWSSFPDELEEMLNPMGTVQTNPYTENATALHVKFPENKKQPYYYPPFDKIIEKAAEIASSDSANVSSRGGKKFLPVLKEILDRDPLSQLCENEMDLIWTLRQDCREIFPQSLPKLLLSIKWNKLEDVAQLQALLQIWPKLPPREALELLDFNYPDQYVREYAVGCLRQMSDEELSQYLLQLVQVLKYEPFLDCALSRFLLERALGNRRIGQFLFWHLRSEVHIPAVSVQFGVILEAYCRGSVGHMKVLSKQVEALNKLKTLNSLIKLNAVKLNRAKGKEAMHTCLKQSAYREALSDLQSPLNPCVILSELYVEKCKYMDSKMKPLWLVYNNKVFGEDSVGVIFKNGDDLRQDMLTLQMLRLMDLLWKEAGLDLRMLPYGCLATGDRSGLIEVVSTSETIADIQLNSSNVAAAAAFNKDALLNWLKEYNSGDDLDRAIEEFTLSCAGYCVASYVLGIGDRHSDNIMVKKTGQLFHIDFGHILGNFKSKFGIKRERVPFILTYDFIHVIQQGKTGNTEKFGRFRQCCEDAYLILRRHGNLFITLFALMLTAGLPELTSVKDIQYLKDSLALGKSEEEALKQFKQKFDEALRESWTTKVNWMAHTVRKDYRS
Sequence of PI3K-p110β (P27986 whole entry partner): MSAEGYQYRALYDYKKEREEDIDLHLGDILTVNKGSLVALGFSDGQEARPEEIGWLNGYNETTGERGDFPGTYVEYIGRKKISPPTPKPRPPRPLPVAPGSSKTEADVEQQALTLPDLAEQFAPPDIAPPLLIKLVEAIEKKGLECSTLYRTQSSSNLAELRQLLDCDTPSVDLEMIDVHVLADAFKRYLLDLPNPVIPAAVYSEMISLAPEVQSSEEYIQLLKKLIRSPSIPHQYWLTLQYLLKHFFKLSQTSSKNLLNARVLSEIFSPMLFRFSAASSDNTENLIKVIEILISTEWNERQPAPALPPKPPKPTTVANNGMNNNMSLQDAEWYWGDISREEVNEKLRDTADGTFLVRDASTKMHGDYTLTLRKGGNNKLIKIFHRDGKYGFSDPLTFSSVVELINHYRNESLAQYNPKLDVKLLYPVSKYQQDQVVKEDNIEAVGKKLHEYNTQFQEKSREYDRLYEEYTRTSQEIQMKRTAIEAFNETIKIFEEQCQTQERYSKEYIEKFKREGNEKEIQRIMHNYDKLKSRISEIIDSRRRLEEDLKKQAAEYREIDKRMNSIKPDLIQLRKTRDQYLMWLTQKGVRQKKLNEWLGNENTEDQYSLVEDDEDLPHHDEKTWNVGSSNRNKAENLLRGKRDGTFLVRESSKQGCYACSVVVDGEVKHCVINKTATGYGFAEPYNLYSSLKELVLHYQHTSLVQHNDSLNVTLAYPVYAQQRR
Sequence of PI3K-p110δ (O00329 whole entry): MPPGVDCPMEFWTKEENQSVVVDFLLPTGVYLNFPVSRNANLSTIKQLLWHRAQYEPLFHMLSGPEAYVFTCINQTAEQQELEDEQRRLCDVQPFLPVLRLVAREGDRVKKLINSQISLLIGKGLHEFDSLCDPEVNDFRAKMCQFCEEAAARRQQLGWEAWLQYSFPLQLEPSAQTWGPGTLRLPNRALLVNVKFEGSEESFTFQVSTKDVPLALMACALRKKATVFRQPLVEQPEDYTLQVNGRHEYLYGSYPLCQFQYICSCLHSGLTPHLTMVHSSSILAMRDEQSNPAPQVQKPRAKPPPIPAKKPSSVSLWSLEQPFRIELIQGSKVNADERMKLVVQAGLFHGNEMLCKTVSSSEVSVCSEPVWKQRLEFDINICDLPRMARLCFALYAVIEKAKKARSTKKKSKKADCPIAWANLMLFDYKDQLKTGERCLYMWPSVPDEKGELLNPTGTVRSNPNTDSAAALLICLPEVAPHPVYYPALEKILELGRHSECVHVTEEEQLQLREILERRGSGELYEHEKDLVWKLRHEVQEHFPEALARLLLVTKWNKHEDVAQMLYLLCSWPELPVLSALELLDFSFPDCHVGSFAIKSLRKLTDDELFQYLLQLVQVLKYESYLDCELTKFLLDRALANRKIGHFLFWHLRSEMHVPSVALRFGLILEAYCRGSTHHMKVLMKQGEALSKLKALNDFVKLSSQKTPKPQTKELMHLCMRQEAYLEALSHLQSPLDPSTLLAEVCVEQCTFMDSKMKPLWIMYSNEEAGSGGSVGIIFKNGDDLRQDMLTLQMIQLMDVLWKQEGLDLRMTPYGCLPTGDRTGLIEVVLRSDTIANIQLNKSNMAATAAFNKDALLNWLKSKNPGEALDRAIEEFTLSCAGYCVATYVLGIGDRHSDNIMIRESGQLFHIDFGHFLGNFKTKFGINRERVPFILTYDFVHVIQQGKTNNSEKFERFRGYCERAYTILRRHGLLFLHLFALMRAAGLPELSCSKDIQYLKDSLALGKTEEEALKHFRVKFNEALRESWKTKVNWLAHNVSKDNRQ
Sequence of PI3K-p110δ (P27986 whole entry partner): as the sequence (P27986 whole entry partner) above
Sequence of PI3K-p110α (P42336 whole entry): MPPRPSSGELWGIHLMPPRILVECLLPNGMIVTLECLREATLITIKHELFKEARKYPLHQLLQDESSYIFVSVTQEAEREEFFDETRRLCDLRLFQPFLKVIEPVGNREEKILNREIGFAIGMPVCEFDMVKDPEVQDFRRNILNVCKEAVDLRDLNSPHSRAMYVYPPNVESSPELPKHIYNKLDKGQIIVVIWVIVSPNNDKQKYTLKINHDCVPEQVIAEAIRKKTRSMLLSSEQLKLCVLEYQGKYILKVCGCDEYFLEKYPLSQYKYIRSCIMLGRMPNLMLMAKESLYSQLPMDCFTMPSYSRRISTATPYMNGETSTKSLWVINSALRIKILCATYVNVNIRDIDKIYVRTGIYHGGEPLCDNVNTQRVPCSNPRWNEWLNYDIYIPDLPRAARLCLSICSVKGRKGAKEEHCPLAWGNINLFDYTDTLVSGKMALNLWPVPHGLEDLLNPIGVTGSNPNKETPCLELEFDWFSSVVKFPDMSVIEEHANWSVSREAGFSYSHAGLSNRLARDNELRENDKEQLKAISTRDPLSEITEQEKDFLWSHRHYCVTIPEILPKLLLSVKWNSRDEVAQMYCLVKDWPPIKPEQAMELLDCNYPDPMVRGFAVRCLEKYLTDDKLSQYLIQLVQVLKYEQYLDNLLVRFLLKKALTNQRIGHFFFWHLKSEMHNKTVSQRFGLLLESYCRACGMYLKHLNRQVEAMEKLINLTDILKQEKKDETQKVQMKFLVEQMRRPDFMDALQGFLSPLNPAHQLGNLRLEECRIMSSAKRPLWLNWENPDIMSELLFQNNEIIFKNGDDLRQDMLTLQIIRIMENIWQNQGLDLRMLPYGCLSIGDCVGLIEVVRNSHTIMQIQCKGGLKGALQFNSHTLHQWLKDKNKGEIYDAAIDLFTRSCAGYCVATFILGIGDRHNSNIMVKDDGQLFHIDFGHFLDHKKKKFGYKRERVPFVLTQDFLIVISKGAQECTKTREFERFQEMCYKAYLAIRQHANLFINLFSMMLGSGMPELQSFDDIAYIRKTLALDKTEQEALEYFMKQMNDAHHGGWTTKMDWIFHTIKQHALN
Sequence of PI3K-p110α (P27986 whole entry partner): as the sequence (P27986 whole entry partner) above
Sequence of PI3K-p110γ (P48736 whole entry): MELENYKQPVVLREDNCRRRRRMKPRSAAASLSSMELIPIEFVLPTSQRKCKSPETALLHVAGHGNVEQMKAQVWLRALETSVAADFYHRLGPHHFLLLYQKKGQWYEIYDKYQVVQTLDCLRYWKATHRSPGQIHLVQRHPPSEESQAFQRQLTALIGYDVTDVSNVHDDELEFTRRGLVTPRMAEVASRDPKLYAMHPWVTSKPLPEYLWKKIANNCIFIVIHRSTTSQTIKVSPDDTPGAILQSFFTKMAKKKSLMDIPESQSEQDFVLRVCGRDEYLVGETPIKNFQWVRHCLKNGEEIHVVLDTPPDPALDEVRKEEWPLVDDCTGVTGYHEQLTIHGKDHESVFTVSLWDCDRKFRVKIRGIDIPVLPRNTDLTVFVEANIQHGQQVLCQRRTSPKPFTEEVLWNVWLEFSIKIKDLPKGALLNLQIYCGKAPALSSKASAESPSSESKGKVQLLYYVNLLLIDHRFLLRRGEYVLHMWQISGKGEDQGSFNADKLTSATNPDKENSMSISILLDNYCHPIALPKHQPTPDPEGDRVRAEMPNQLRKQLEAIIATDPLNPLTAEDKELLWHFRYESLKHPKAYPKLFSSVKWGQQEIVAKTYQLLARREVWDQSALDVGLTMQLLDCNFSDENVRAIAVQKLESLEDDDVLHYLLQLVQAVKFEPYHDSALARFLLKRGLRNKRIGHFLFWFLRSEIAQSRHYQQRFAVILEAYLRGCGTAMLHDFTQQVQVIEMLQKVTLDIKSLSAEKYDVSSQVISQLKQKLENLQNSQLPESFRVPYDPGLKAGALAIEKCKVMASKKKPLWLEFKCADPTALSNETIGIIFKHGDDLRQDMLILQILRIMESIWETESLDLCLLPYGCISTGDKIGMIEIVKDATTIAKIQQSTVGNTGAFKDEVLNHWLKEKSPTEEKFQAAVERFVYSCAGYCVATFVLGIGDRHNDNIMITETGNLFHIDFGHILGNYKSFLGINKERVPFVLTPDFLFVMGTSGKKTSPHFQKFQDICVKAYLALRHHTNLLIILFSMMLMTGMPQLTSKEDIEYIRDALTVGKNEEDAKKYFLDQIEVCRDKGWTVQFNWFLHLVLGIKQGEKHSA

IC50 (PI3K-p110γ)	IC50 (PI3K-p110δ)	IC50 (PI3K-p110β; isoform panel, second part of table, read-out: IC50 PI3K-p110β)	IC50 (PI3K-p110α)	IC50 (MCF7 Breast Tumour Cell)	IC50 (PI3K-p110β; [1])	Structure (SMILES)
> 10 µM	0.26 µM	3.4 µM	> 10 µM			c1cc(-c2cc3ncccc3c(N3CCOCC3)n2)c2cc[nH]c2c1 [G, 7-(1H-Indol-4-yl)-5-morpholin-4-yl-1,6-naphthyridine]
				6.06 µM	0.69 µM	Nc1ccc(-c2cc3ncccc3c(N3CCOCC3)n2)cc1Cl [E, 2-Chloro-4-(5-morpholin-4-yl-[1,6]naphthyridin-7-yl)-phenylamine]
				10.9 µM	3.7 µM	Nc1ccc(-c2cc3ncccc3c(N3CCOCC3)n2)c(Cl)c1 [F, 3-Chloro-4-(5-morpholin-4-yl-[1,6]naphthyridin-7-yl)-phenylamine]
